# Read-outs that look alike come from different tables or passages of the source.
# Columns and labels:
# [1] = tested on: twospotted spider mite; test: Foliar application, twospotted spider mite; format: in vivo; conditions: Tetranychus urticae, read-out: Foliar % Kill (ppm)
# Procedure: (§1) Foliar Application: The activity of some of the compounds of the invention against various test species selected from pea aphid (Acyrthosiphon pisum), twospotted spider mite (Tetranychus urticae), southern armyworm (Spodoptera eridania), Mexican bean beetle (Epilachna varivestis), and cabbage looper (Tricoplusia ni) was determined by foliar application of the test compound. The test materials were formulated as aqueous solutions containing 10% acetone and 0.25% acetylphenoxypolyethoxyethanol. Activity against pea aphid was determined on English fava bean plants the leaves of which were sprayed to runoff with various concentrations of test solution prior to infestation with adult aphids. Activity against twospotted spider mite was evaluated on pinto bean plants whose leaves were sprayed to runoff with various concentrations of test solution after infestation with adult mites. Activity against the remaining species was evaluated on pinto bean plants whose leaves were sprayed to runoff with various concentrations of test solution before infestation with the appropriate immature insects. Mortality was read approximately 48 hours after treatment.
# [2] = tested on: Mexican bean beetle; test: Topical application, Mexican bean beetle; format: in vivo, Epilachna varivestis; conditions: MBB; for Topical % Kill @ 5000 ng/insect: 24 hours
# Procedure: (§2) Topical Application: The compounds of this invention were tested for insecticidal activity against various insect species selected from southern armyworm (Spodoptera eridania), Mexican bean beetle, (Epilachna varivestis), milkweed bug (Oncopeltus fasciatus), and cabbage looper (Tricoplusia ni) by applying to the second or third dorsal thoracic segment of each larvae a one microliter droplet containing 5 mg/mL of test compound in acetone (5000 ng/insect). The test was allowed to stand 24 hours after application and was then read to determine the percent kill.
# (§3) To determine the LD50 of the compounds, the topical application test was repeated by applying various amounts of toxicant. Also included among the species tested against for this determination were tobacco budworm (Heliothis virescens), beet armyworm (Spodoptera exigua), and boll weevil (Anthonomus grandis).
# [3] = tested on: southern armyworm; test: Foliar application, southern armyworm; format: in vivo; conditions: Spodoptera eridania, read-out: Foliar % Kill (ppm)
# Procedure: as §1
# [4] = tested on: southern armyworm; test: Topical application, southern armyworm; format: in vivo, Spodoptera eridania; conditions: SAW; for Topical % Kill @ 5000 ng/insect: 24 hours
# Procedure: as §2, §3
# [5] = tested on: milkweed bug; test: Topical application, milkweed bug; format: in vivo, Oncopeltus fasciatus; conditions: MWB; for Topical % Kill @ 5000 ng/insect: 24 hours
# Procedure: as §2, §3
# [6] = tested on: pea aphid; test: Foliar application, pea aphid; format: in vivo; conditions: Acyrthosiphon pisum, read-out: Foliar % Kill (ppm)
# Procedure: as §1
# [7] = tested on: Mexican bean beetle; test: Foliar application, Mexican bean beetle; format: in vivo; conditions: Epilachna varivestis, read-out: Foliar % Kill (ppm)
# Procedure: as §1
# [8] = tested on: tobacco budworm; test: Topical application, tobacco budworm; format: in vivo, Heliothis virescens; conditions: TBW
# Procedure: as §2, §3
# [9] = tested on: cabbage looper; test: Topical application, cabbage looper; format: in vivo, Tricoplusia ni; conditions: CL; for Topical % Kill @ 5000 ng/insect: 24 hours
# Procedure: as §2, §3
Structure (SMILES),"mortality at 500 ppm ([1]; TSM, foliar, 48 hours) [%]",Topical LD50 [2] [ng/insect],Topical % Kill @ 5000 ng/insect [2] [%],"mortality at 500 ppm ([3]; SAW, foliar, 48 hours) [%]",Topical LD50 [4] [ng/insect],Topical % Kill @ 5000 ng/insect [4] [%],Topical LD50 [5] [ng/insect],Topical % Kill @ 5000 ng/insect [5] [%],"mortality at 500 ppm ([6]; PA, foliar, 48 hours) [%]","mortality at 64 ppm ([7]; MBB, foliar, 48 hours) [%]","mortality at 16 ppm ([1]; TSM, foliar, 48 hours) [%]",Topical LD50 [9] [ng/insect],further results
"Cc1c(COC(=O)[C@H]2[C@@H](C=C(Cl)C(F)(F)F)C2(C)C)cccc1-c1cnccn1 (relative stereo) [p, [2-methyl-3-(pyrazinyl)phenyl]methyl cis-3-(2-chloro-3,3,3-trifluoro-1-propenyl)-2,2-dimethylcyclopropanecarboxylate]",100,93,100,100,1948,90,1050,100,100,80,,,
"Cc1c(COC(=O)[C@H]2[C@@H](C=C(Cl)Cl)C2(C)C)cccc1-c1ccco1 (relative stereo) [n, [3-(2-furanyl)-2-methylphenyl]methyl cis-3-(2,2-dichloroethenyl)-2,2-dimethylcyclopropanecarboxylate]",,72,100,100,73,,1140,100,,40,0,341,"Topical LD50 [8]: 92 ng/insect; mortality at 64 ppm ([6]; PA, foliar, 64 ppm, 48 hours): 100%"
"Cc1c(COC(=O)C2C(C=C(Cl)Cl)C2(C)C)cccc1-c1ccco1 (mixture of isomers) [o, [3-(2-furanyl)-2-methylphenyl]methyl cis,trans-3-(2,2-dichloroethenyl)-2,2-dimethylcyclopropanecarboxylate]",,86,100,100,146,100,450,100,100,45,0,536,Topical LD50 [8]: 45 ng/insect
"CC1(C)C(C=C(Cl)Cl)C1C(=O)OCc1cccc(-c2cccs2)c1 (mixture of isomers) [a, 3-(2-thienyl)phenylmethyl cis,trans-3-(2,2-dichloroethenyl)-2,2-dimethylcyclopropanecarboxylate]",,,,,148,100,,,,,,3649,Topical % Kill @ 5000 ng/insect [9]: 100%
"CC1(C)[C@H](C(=O)OCc2cccc(-c3ccc(Br)o3)c2)[C@@H]1C=C(Cl)Cl (relative stereo) [l, [3-(5-bromofuranyl)phenyl]methyl cis-3-(2,2-dichloroethenyl)-2,2-dimethylcyclopropanecarboxylate]",,,35,,1819,100,,0,,,,,mortality at 64 ppm ([1]; 48 h): 0%; mortality at 512 ppm ([3]; 48 h): 100%; mortality at 512 ppm ([6]; 48 h): 75%; mortality at 512 ppm ([7]; 48 h): 80%
"CC1(C)[C@H](C=C(Cl)Cl)[C@@H]1C(=O)OCc1cccc(-c2cccs2)c1 (relative stereo) [b, 3-(2-thienyl)phenylmethyl cis-3-(2,2-dichloroethenyl)-2,2-dimethylcyclopropanecarboxylate]",0,471,,,54,,1715,,,,,1275,"mortality at 512 ppm ([3]; SAW, foliar, 512 ppm, 48 hours): 95%; mortality at 512 ppm ([6]; PA, foliar, 512 ppm, 48 hours): 80%; mortality at 512 ppm ([7]; MBB, foliar, 512 ppm, 48 hours): 80%"
"CC1(C)[C@H](C=C(Cl)Cl)[C@@H]1C(=O)OCc1cccc(-c2ccco2)c1 (relative stereo) [j, [3-(2-furanyl)phenyl]methyl cis-3-(2,2-dichloroethenyl)-2,2-dimethylcyclopropanecarboxylate]",0,,30,,377,100,,0,40,,,,"mortality at 512 ppm ([3]; SAW, foliar, 512 ppm, 48 hours): 100%; mortality at 512 ppm ([7]; MBB, foliar, 512 ppm, 48 hours): 50%"
"Cc1c(COC(=O)[C@H]2[C@@H](C=C(Cl)C(F)(F)F)C2(C)C)cccc1-c1cccnc1 (relative stereo) [r, [2-methyl-3-(pyridin-3-yl)phenyl]methyl cis-3-(2-chloro-3,3,3-trifluoro-1-propenyl)-2,2-dimethylcyclopropanecarboxylate]",,863,,100,2626,100,1047,100,95,25,0,,
"CC1(C)[C@@H](C=C(Cl)Cl)[C@@H]1C(=O)OCc1cccc(-c2cccs2)c1 (relative stereo) [c, 3-(2-thienyl)phenylmethyl trans-3-(2,2-dichloroethenyl)-2,2-dimethylcyclopropanecarboxylate]",,,,,421,100,,,,,,,Topical % Kill @ 5000 ng/insect [9]: 0%
"Cc1c(COC(=O)[C@H]2[C@@H](C=C(Cl)C(F)(F)F)C2(C)C)cccc1-c1ccccn1 (relative stereo) [s, [2-methyl-3-(pyridin-2-yl)phenyl]methyl cis-3-(2-chloro-3,3,3-trifluoro-1-propenyl)-2,2-dimethylcyclopropanecarboxylate]",80,38,100,100,60,100,607,100,100,60,,,
"CC1(C)[C@H](C=C(Cl)C(F)(F)F)[C@@H]1C(=O)OCc1cccc(-c2ccco2)c1 (relative stereo) [k, [3-(2-furanyl)phenyl]methyl cis-3-(2-chloro-3,3,3-trifluoro-1-propenyl)-2,2-dimethylcyclopropanecarboxylate]",,510,90,,366,100,,40,,,,,"mortality at 64 ppm ([1]; TSM, foliar, 64 ppm, 48 hours): 0%; mortality at 512 ppm ([3]; SAW, foliar, 512 ppm, 48 hours): 100%; mortality at 512 ppm ([6]; PA, foliar, 512 ppm, 48 hours): 100%; mortality at 512 ppm ([7]; MBB, foliar, 512 ppm, 48 hours): 100%"
"Cc1c(COC(=O)[C@@H]2[C@H](C=C(Cl)Cl)C2(C)C)cccc1-c1cnccn1 (relative stereo) [q, [2-methyl-3-(pyrazinyl)phenyl]methyl cis-(2,2-dichloroethenyl)-2,2-dimethylcyclopropanecarboxylate]",,269,90,85,2387,90,4915,90,100,55,0,,
"Cc1c(COC(=O)[C@H]2[C@@H](C=C(Cl)C(F)(F)F)C2(C)C)cccc1-c1ccco1 (relative stereo) [m, [3-(2-furanyl)-2-methylphenyl]methyl cis-3-(2-chloro-3,3,3-trifluoro-1-propenyl)-2,2-dimethylcyclopropanecarboxylate]",,43,100,100,56,100,286,100,100,75,0,149,Topical LD50 [8]: 46 ng/insect

# — US4426524A, “Heterocyclic substituted benzyl alcohol, insecticidal ester derivatives, and intermediates” (priority 1982, dated 1984)
